We go through 3 molecules from patent US9255272B2, “Use of inhibitors of leukotriene B4 receptor BLT2 for treating asthma” (Korea University Research & Business Foundation, priority 2007, dated 2016).

In one data set the test system is NF-κB. The data set can be described thus: NF-κB binding activity in lung nuclear extracts (EMSA). Type of data set: in vivo, mouse. How it is done:
(§1) Female BALB/c mice and C57BL/6 mice (7 weeks old; 18-20 g) were obtained from Orientbion Inc. (Seoungnam, Korea). Sensitization and challenge were carried out as described previously with some modification (28). Briefly, female C57BL/6 mice (7 weeks old; 18-20 g) were immunized by intraperitoneal (i.p.) injection of 200 μg ovalbumin (OVA) emulsified in 2.5 mg of adjuvant aluminum hydroperoxide gel (alum) (Pierce, Rockford, Ill.). A second i.p. injection of 20 μg OVA adsorbed onto alum (2.5 mg) was administered 10 days later. After an additional 10 days, mice were exposed to an aerosol of 1% OVA in saline for 30 min daily on 3 consecutive days. On day 25, mice were finally challenged by provocation with 10% OVA aerosol. For inhibition experiments, sense or antisense BLT2 (1.6 mg/kg) was injected intravenously 24 h and then 1 h before the 10% OVA challenge. The mice were then killed on day 27 to assess asthmatic phenotypes. Antisense BLT2 oligonucleotide (5′-[…]-3′ (SEQ ID NO: 15)), sense BLT2 oligonucleotide (5′-[…]-3′ (SEQ ID NO: 16)).
A double-strand oligonucleotide corresponding to the consensus NF-κB binding motif and a mutant sequence were purchased from Santa Cruz Biotechnology Inc. (Santa Cruz, Calif.) and labeled with γ-32P-ATP using T4 polynucleotide kinase (Roche, Germany). […]
(In general: A gel shift assay detects complexes by their altered migration in electrophoresis.)

A further data set concerns BLT1 mRNA. Description: BLT1 mRNA level in lung of OVA-challenged mice (semiquantitative RT-PCR). Type of data set: in vivo, mouse. To be noted: C57BL/6 mice, 1.6 mg/kg i.v. 24 hr and 1 hr before 10% OVA challenge. How it is done: as §1
Total RNA was extracted from lung samples using Easy-blue RNA extraction reagent (Intron, Korea). […] For the semiquantitative analysis of transcripts, the optimal PCR conditions were first determined by linear amplification of glyceraldehyde-3-phosphate dehydrogenase (GAPDH). […]

The test system of the next data set is Rac. The data set can be described thus: Endogenous Rac expression in lung tissue (Western blot). Type of data set: in vivo, mouse. To be noted: oligonucleotides injected into tail veins, mice sacrificed after 12 hr. The source says:
FIGS. 10a and 10b show activation of Rac in the lung tissue by OVA provocation and inhibition of endogenous Rac expression by antisense Rac oligonucleotide treatment. Lung samples were homogenized with micropestle and washed with PBS twice. FIG. 10a depicts Western blot analysis of Rac expression in mouse model of asthma. For membrane protein preparation, cells were suspended in Buffer A and cells were ruptured by passing through 21-G syringe. After ultracentrifugation, protein samples in pelleted membrane fraction were dissolved with buffer A containing 1% Triton X-100. FIG. 10b depicts Western blot analysis of Rac expression in mouse model of asthma administered with asRac. For whole cell lysate preparation, cells from the lung tissues of buffer, control Rac oligonucleotide or antisense Rac oligonucleotide injected mice were suspended with lysis buffer and incubated for 20 min. After centrifugation of the samples, protein quantification was carried out using Bradford reagent and Western blot analysis was performed.
Oligonucleotides, from Genotech Co. (Korea), were synthesized with a phosphorothioate backbone to improve the resistance to endonuclease. The antisense oligonucleotide consisted of 17 nucleotides analogues to the 5′ end of the murine Rac mRNA sequence, which spans the translation initiation site. […]

The subject of data set [1] is acute lung injury induced by endotoxin. To be noted: pigs, cited from earlier work.
The next data set concerns eosinophil. To be noted: concentration of 10 μM; cited from earlier work.
The target in data set [2] is eosinophil membranes (LTB4 binding). To be noted: read-out: IC50 for inhibition of the binding of radiolabeled LTB4 to eosinophil membranes; cited from earlier work.

As usually defined, the IC50 is the concentration that gives 50% inhibition.

For the molecule “antisense BLT2: Antisense BLT2 oligonucleotide 5′-GCTCAGTAGTGTCTCATTCC-3′ (SEQ ID NO: 15) (listed as DNA, chemistry not fully specified)”, the “NF-κB binding activity elicited by OVA challenge” value with NF-κB (antisense BLT2 1.6 mg/kg i.v. 24 hr and 1 hr before provocation) is “attenuated”. The “BLT1 expression in the lung (mRNA)” value in the data set with BLT1 mRNA is listed as “without interfering”.

In the case of “antisense Rac: phosphorothioate 17-mer to the 5′ end of murine Rac mRNA, 5′-CACTTGATGGCCTGCAT-3′ (SEQ ID NO: 22) (listed as DNA, chemistry not fully specified)”, in the data set with NF-κB (antisense Rac 1.25 mg/kg, tail vein), the “NF-κB binding activity elicited by OVA challenge” value is listed as “attenuated”. The “endogenous expression of Rac in the lung tissues” value in the data set on Rac is on record as “inhibited”.

On to `CCc1cc(C(C)=O)c(O)cc1OCCCCCC(C)(C)c1nnn[nH]1` [LY255283, 1-[5-ethyl-2-hydroxy-4-[[6-methyl-6-(1H-tetrazol-5-yl)heptyl]oxy]phenyl]-ethanone, reference compound], for which, in data set [1] (endotoxin), the activation of neutrophils result was “limits activation of neutrophils”. Further, the “acute lung injury induced by endotoxin” value in data set [1] is given as “prevents acute lung injury”. Also, the “inhibition of eosinophil chemotaxis” value with eosinophil is reported as 80%. Besides, the half-inhibitory concentration (IC50) in data set [2] was 260 nM.
